Measured values reported in US7964731B2, “Isotopically marked quinoline derivatives as adenosin A3 receptor ligands” (Sanofi-Aventis, priority 2004, dated 2011).

Key:
[1] = molecular target: T1, human adenosine A3 receptor (CHO-hA3 membrane preparation) (Homo sapiens, UniProt P0DMS8); experiment: Scatchard analysis of radioisotope saturation curves of the radioligand of Example 2/a; format: binding
T1 sequence (P0DMS8 1-318): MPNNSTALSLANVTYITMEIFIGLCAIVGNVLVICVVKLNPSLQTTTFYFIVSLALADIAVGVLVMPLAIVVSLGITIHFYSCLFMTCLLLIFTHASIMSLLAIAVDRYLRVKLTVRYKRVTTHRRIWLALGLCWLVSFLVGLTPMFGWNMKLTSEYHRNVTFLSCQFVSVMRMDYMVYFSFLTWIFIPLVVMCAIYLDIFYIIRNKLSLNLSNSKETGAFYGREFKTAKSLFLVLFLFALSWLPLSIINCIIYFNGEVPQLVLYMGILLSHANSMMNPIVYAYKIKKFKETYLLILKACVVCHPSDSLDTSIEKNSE
Procedure: (§1) Preparing membrane suspension: collect ovarium cells of cloned Chinese hamster expressing human A3 receptors (further: CHO-hA3), wash them three times with PBS, centrifuge (1000×g 10 min.) and homogenize (B.Braun Potter S) at 1500/min rotation speed. Buffer: 50 mM Tris, 10 mM MgCl2, 1 mM EDTA, pH 8.0. Centrifuge this homogenized mixture (43.000 g, 10 min), suspense the pellet in the above buffer with adjustment of the protein concentration to 0.1 mg/mL (Bradford method) and complete with 2 U/mL ADA.
Incubate the CHO-hA3 membrane preparation (protein content 4 μg) in the presence of the test compound and 0.5 nM of the compound containing radioactive iodine (100.000 cpm), described in Example 2/a, in incubation buffer (50 mM Tris, pH 8.0, 10 mM MgCl2, 1 mM EDTA, 0.08% CHAPS, 0.5% BSA, 2 U/mL adenosine deaminase). […] Keep the isotop preparation and the reaction mixture in polyethylene tube to decrease adsorption. […] Detection of radioactivity: in gamma-counter (1470 Wizard, Wallac). […]
On the basis of radioisotop saturation curves, by Scatchard analysis (G. Scatchard, Ann. N. Y. Acad. Sci. 51:660, 1949) the dissociation constant (KD) of the new radioligand of Example 2/a on CHO-hA3 membrane preparation is determined.

[2] = molecular target: T2, human A1 receptors (CHO-hA1 membrane preparation) (Homo sapiens, UniProt P30542); experiment: Human adenosine A1 receptor binding, [3H]CCPA; settings: 1 μM test compound, radioligand [3H]CCPA
T2 sequence (P30542 1-326): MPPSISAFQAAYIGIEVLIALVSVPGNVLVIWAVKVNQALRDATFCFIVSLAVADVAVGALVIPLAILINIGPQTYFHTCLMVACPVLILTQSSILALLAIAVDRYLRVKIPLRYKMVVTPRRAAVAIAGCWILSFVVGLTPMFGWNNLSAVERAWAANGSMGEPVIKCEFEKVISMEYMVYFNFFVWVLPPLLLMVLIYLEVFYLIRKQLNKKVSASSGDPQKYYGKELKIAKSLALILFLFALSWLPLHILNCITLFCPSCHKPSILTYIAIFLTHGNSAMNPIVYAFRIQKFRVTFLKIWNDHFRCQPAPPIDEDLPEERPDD
Procedure: Preparing membrane suspension: collect ovarium cells of cloned Chinese hamster expressing human A1 receptors (further: CHO-hA1), wash them three times with PBS, centrifuge (1000×g 10 min.) and homogenize (B.Braun Potter S) at 1500/min rotation speed. Buffer: 50 mM Tris HCl, pH 7,4. Centrifuge this homogenized mixture (43.000 g, 10 min), suspense the pellet in the above buffer with adjustment of the protein concentration to 5 mg/mL (Bradford method) and complete with 2 U/mL ADA. […] Filter over Whatman GF/B glass fibre filters (presoaked in 0.5% polyethylimine for 3 hours), wash 4× with 1 mL ice-cold 50 mM Tris HCl (pH 7.4) on 96-well Brandel Cell Harvester. Detection of activity: in 96-well plate in the presence of HiSafe-3 cocktail in beta-counter (1450 Microbeta, Wallac). Inhibition [%]=100−((activity in the presence of test compound−non-specific activity)/(total activity−non-specific activity))*100

[3] = molecular target: T3, human A2b adenosine receptors transfected into HEK-293 cells (Homo sapiens, UniProt P29275); experiment: Human adenosine A2b receptor binding, [3H]DPCPX; settings: 1 μM test compound, radioligand [3H]DPCPX; read-out: Inhibition in 1 μM hA2B [3H]DPCPX
T3 construct: purchased Receptor Biology, Inc; host or cells: HEK-293 cells (transfected), membranes
T3 sequence (P29275 1-332): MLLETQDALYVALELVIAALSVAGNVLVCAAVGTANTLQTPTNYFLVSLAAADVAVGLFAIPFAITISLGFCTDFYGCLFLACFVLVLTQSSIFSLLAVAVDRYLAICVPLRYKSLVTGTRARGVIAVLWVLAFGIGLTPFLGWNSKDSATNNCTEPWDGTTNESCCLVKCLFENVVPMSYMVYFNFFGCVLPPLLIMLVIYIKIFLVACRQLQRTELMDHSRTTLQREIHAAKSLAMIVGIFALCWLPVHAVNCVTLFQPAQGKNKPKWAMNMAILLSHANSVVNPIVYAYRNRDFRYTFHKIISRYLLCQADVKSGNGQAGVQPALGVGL
Procedure: Human Adenosine A2b Receptor Binding
Binding protocol: incubate 20.8 μg of membranes (human A2b adenosine receptors transfected into HEK-293 cells, source: Receptor Biology, Inc.), in the presence of the test compound and 32.4 nM [^3H]DPCPX (8-cyclopenthyl-1,3-dipropylxanthine) (800.000 dpm) in incubation buffer (50 mM Tris-HCl, 10 mM MgCl2, 1 mM EDTA, 0.1 mM benzamidine, 2 U/mL adenosine deaminase, pH 6.5). The non-specific binding is defined in the presence of 100 μM NECA (5′-N-ethylcarboxamido-adenosine) in a total volume of 100 μL for 30 min at room temperature. Filter under 25 Hgmm vacuum over Whatman GF/C glass fibre filters (presoaked in 0.5% polyethylimine for 3 hours), wash 4× with 1 mL ice-cold 50 mM Tris HCl (pH 6.5) on 96-well Brandel Cell Harvester. Detection of activity: in beta-counter (1450 Microbeta, Wallac) in the presence of 200 μL of HiSafe-3 cocktail. Inhibition [%]=100−((activity in the presence of test compound−non-specific activity)/(total activity−non-specific activity))*100

[4] = molecular target: T4, human A2a adenosine receptors transfected into HEK-293 cells (Homo sapiens, UniProt P29274); experiment: Human adenosine A2a receptor binding, [3H]CGS-21680; settings: 1 μM test compound, radioligand [3H]CGS21680; read-out: Inhibition in 1 μM hA2A [3H]CGS21680
T4 construct: purchased Receptor Biology, Inc; host or cells: HEK-293 cells (transfected), membranes
Procedure: Human Adenosine A2a Receptor Binding
Incubate 7 μg of membranes (human A2, adenosine receptors transfected into HEK-293 cells, source: Receptor Biology, Inc.), in the presence of the test compound and 20 nM [^3H]CGS-21680 (2-[p-(2-carbonylethyl)phenylethylamino]-5′-N-ethylcarboxamido-adenosine) (200.000 dpm) in incubation buffer (50 mM Tris HCl, 10 mM MgCl2, 1 mM EDTA, 2 U/mL adenosine deaminase, pH 7.4). The non-specific binding is defined in the presence of […] NECA (5′-N-ethylcarboxamido-adenosine) in a total volume of 100 μl for 90 min at room temperature. Filter in vacuum over Whatman GF/B glass fibre filters (presoaked for 3 hours in 0.5% polyethylimine), wash 4× with 1 mL ice-cold buffer (50 mM Tris HCl, 10 mM MgCl2, 1 mM EDTA, 0.9% NaCl, pH 7.4) on 96-well Brandel Cell Harvester. Detection of activity: in beta-counter (1450 Microbeta, Wallac) in the presence of 200 μL HiSafe-3 cocktail. Inhibition [%]=100−((activity in the presence of test compound−non-specific activity)/(total activity−non-specific activity))*100.

[5] = molecular target: T5, human A3 receptors (CHO-hA3 membrane preparation) (Homo sapiens, UniProt P0DMS8); experiment: Human adenosine A3 receptor binding in the presence of [125I]AB-MECA
T5 sequence (P0DMS8 1-318): T1 sequence (P0DMS8 1-318)
Procedure: Human Adenosine A3 Receptor Binding
as §1
Receptor Binding in the Presence of [^125I]AB-MECA:
Incubate the CHO-hA3 membrane preparation (protein content 2 μg) in the presence of the test compound and 0.5 nM [^125I]AB-MECA (4-amino-3-iodo-benzyl-5′-N-methylcarboxamide-adenosine) (100.000 cpm) in incubation buffer (50 mM Tris, 10 mM MgCl2, 1 mM EDTA, 2 U/mL adenosine deaminase, pH 8.0). […] Filter under 25 Hgmm vacuum over Whatman GF/C glass fibre filters (presoaked in 0.5% polyethylimine for 3 hours), wash 4× with 1 mL ice-cold buffer (50 mM Tris, 10 mM MgCl2, 1 mM EDTA, pH 8) on 96-well Brandel Cell Harvester. Detection of radioactivity: in gamma-counter (1470 Wizard, Wallac). Inhibition [%]=100−((activity in the presence of test compound−non-specific activity)/(total activity−non-specific activity))*100.

[6] = molecular target: T5, human A3 receptors (CHO-hA3 membrane preparation); experiment: Human adenosine A3 receptor binding in the presence of the radioactive iodine-containing compound of Example 2/a; settings: radioligand of Example 2/a, 4 μg CHO-hA3 preparation, Cheng-Prusoff from IC50; read-out: Ki, the radioligand given in Example 2/a
Procedure: as §1
Receptor Binding in the Presence of the Radioactive Iodine-Containing Compound of Example 2/a:
Incubate the CHO-hA3 membrane preparation (protein content 4 μg) in the presence of the test compound and 0.5 nM of the compound containing radioactive iodine (100.000 cpm), described in Example 2/a, in incubation buffer (50 mM Tris, pH 8.0, 10 mM MgCl2, 1 mM EDTA, 0.08% CHAPS, 0.5% BSA, 2 U/mL adenosine deaminase). […] Detection of radioactivity: in gamma-counter (1470 Wizard, Wallac). […]
Knowing the KD values, by the Cheng-Prusoff equation (Y. J. Cheng and W. H. Prusoff, Biochem. Pharmacol. 22:3099, 1973) the Ki constants of the investigated reference compounds and that of the starting compound of Example 2/b (i.e. of the un-labeled analogue of the new radioligand of Example 2/a) were calculated on the basis of the IC50 values.

T4 sequence (P29274 whole entry): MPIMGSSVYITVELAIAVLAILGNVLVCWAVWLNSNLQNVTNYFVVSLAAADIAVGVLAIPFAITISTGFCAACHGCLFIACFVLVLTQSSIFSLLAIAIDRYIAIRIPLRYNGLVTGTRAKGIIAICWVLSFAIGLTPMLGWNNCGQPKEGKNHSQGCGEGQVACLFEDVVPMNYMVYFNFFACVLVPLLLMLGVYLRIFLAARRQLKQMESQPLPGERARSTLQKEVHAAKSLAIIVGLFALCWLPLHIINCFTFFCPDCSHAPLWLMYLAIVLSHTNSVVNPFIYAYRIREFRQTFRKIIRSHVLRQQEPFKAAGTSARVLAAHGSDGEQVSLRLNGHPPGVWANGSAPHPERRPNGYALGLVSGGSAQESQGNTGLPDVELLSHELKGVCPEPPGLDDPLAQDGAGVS

SMILES: COc1ccc(C(=O)Nc2nc3ccc([125I])cc3c(NCc3cccs3)c2C#N)cc1 [Example 2/a, 4-Methoxy-N-(6-[^125I]iodo-4-[2-thienylmethylamino]-3-cyanoquinolin-2-yl)benzamide]
- Kd ([1]; 0.156 nM-10 nM radioligand, 4 μg protein CHO-hA3, read-out: dissociation constant (KD)): 4 nM
- maximal binding capacity ([1]; 4 μg protein CHO-hA3): 985 femtomol/1 mg protein

SMILES: COc1ccc(C(=O)Nc2nc3ccc(I)cc3c(NCc3cccs3)c2C#N)cc1 [The starting compound of Example 2/b, 4-Methoxy-N-(6-iodo-4-[2-thienylmethylamino]-3-cyanoquinolin-2-yl)benzamide]
- inhibition at 1 µM [2]: 4%
- inhibition at 1 µM [3]: -16%
- inhibition at 1 µM [4]: 29%
- selectivity for adenosine A3 receptor compared to the other adenosine receptor sub-types ([5]; A3 versus A1, A2a, A2b): at least thousand-fold selectivity
- Ki ([5]; radioligand [125I]AB-MECA, CHO-hA3 membranes): 1.5 nM
- Ki [6]: 1.3 nM
